Source: paper PMC6440567 (Clinical and Translational Science, 2018)

How the values were obtained:
[1] = Final avibactam PopPK model; type: in vivo, human; details: for clearance: human, plasma, intravenous
[2] = Individual predicted steady‐state exposures; type: in vivo, human; details: for AUC / Cmax: human, plasma; for AUC: AUCss,0–24 geometric mean (CV)
[3] = test system: ceftazidime‐resistant P. aeruginosa; details: thigh and lung infection; cited from earlier work
OAT3 = details: in vitro; cited from earlier work
[4] = test system: organic anion transporter 1 (OAT1); details: in vitro; cited from earlier work
[5] = test system: ceftazidime‐resistant Enterobacteriaceae; details: cited from earlier work
[6] = taken to be; ref not given; cited from earlier work
[7] = non‐Chinese, non‐Japanese Asians vs other racial origins

NC(=O)[C@@H]1CC[C@@H]2CN1C(=O)N2OS(=O)(=O)O [Avibactam, avibactam]
lower V c ([1]; 10th percentile of body weight (51 kg) vs median weight (70 kg)): 29%
higher V c ([1]; 90th percentile of body weight (95 kg) vs median weight (70 kg)): 39%
decrease in CL ([1]; APACHE II score > 10): 19.7%
increase in CL for an increase of 100 mL/min in CrCL over 80 mL/min ([1]; CrCL ≥ 80 mL/min): 27.9%
clearance ([1]; CL, patients with ESRD, off dialysis): 1.13 mL/min
clearance ([1]; CL, patients with ESRD, on‐dialysis): 347 mL/min
clearance ([1]; θ1: CL, typical value): 170 mL/min
clearance ([1]; θ6: CL estimate for patients on dialysis): 347 mL/min
θ9: Population effect on V c (cIAI, phase II), V c*(1 + θ9) ([1]; in vivo): 1.92
θ11: Population effect on V c (cUTI), V c*(1 + θ11) ([1]; in vivo): 0.434
θ12: Population effect on V c (cIAI, phase III, NP), V c*(1 + θ11) ([1]; in vivo): 0.329
θ14: WT on V c (WT/70.0)^θ14 ([1]; in vivo): 1.08
θ 28: NPv on V c,V c*(1 + θ28) ([1]; in vivo): 0.175
increase in AUC [1, 7]: 9.5%
lower CL [1, 7]: 8.65%
higher V c ([1]; patients with NPv vs non‐NPv patients): 17.5%
higher V c ([1]; patients with cUTI vs healthy subjects): 43.4%
higher V c ([1]; phase III patients with cIAI and patients with NP vs healthy subjects): 32.9%
θ2: V c ([1]; typical value): 11.1 L
θ3: Q ([1]; typical value): 5.44 L/h
θ4: V p ([1]; typical value): 6.91 L
AUC ([2]; Age (years) 18–65): 131 µg·h/mL
AUC ([2]; Age (years) > 65–75): 156 µg·h/mL
AUC ([2]; Age (years) > 75–89): 180 µg·h/mL
AUC ([2]; Asian population: China (only)): 153 µg·h/mL
AUC ([2]; Asian population: Japan): 164 µg·h/mL
AUC ([2]; Baseline WBC count Missing): 147 µg·h/mL
AUC ([2]; Concomitant use of OAT1/OAT3 inhibitor(s): No): 142 µg·h/mL
AUC ([2]; Concomitant use of OAT1/OAT3 inhibitor(s): Yes): 150 µg·h/mL
AUC ([2]; Fever at baseline: Missing): 132 µg·h/mL
AUC ([2]; Fever at baseline: No): 146 µg·h/mL
AUC ([2]; Fever at baseline: Yes): 134 µg·h/mL
AUC ([2]; Obesity I (29.9 ≤ BMI < 34.9 kg/m^2)): 136 µg·h/mL
AUC ([2]; Obesity II (34.9 ≤ BMI < 39.9 kg/m^2)): 141 µg·h/mL
AUC ([2]; Obesity III (BMI ≥ 39.9 kg/m^2)): 115 µg·h/mL
AUC ([2]; Obesity: Missing): 172 µg·h/mL
AUC ([2]; Obesity: Normal): 144 µg·h/mL
AUC ([2]; Race: Asian (non‐Chinese; non‐Japanese)): 166 µg·h/mL
AUC ([2]; Race: Chinese and Taiwanese): 151 µg·h/mL
AUC ([2]; Race: Japanese): 164 µg·h/mL
AUC ([2]; Race: White/other): 135 µg·h/mL
Cmax ([2]; C max,ss geometric mean (CV), Age (years) 18–65): 12500 ng/mL
Cmax ([2]; C max,ss geometric mean (CV), Age (years) > 65–75): 13200 ng/mL
Cmax ([2]; C max,ss geometric mean (CV), Age (years) > 75–89): 14000 ng/mL
Cmax ([2]; C max,ss geometric mean (CV), Asian population: China (only)): 14900 ng/mL
Cmax ([2]; C max,ss geometric mean (CV), Asian population: Japan): 16100 ng/mL
Cmax ([2]; C max,ss geometric mean (CV), Asian population: Korea): 13000 ng/mL
Cmax ([2]; C max,ss geometric mean (CV), Concomitant use of OAT1/OAT3 inhibitor(s): No): 12800 ng/mL
Cmax ([2]; C max,ss geometric mean (CV), Concomitant use of OAT1/OAT3 inhibitor(s): Yes): 13700 ng/mL
Cmax ([2]; C max,ss geometric mean (CV), Fever at baseline: Missing): 11800 ng/mL
Cmax ([2]; C max,ss geometric mean (CV), Fever at baseline: No): 12900 ng/mL
Cmax ([2]; C max,ss geometric mean (CV), Fever at baseline: Yes): 12200 ng/mL
Cmax ([2]; C max,ss geometric mean (CV), Obesity I (29.9 ≤ BMI < 34.9 kg/m^2)): 12000 ng/mL
Cmax ([2]; C max,ss geometric mean (CV), Obesity II (34.9 ≤ BMI < 39.9 kg/m^2)): 13200 ng/mL
Cmax ([2]; C max,ss geometric mean (CV), Obesity III (BMI ≥ 39.9 kg/m^2)): 9700 ng/mL
Cmax ([2]; C max,ss geometric mean (CV), Obesity: Missing): 14200 ng/mL
Cmax ([2]; C max,ss geometric mean (CV), Obesity: Normal): 13000 ng/mL
Cmax ([2]; C max,ss geometric mean (CV), Race: Asian (non‐Chinese; non‐Japanese)): 14900 ng/mL
Cmax ([2]; C max,ss geometric mean (CV), Race: Chinese and Taiwanese): 14700 ng/mL
Cmax ([2]; C max,ss geometric mean (CV), Race: Japanese): 16100 ng/mL
Cmax ([2]; C max,ss geometric mean (CV), Race: White/other): 12000 ng/mL
Cmax ([2]; intravenous): 12700 ng/mL
AUC ([2]; intravenous, 187.5 mg, Day 3 CrCL 8–15 mL/min (750‐187.5 mg q24 h)): 86.3 µg·h/mL
Cmax ([2]; intravenous, 187.5 mg, C max,ss geometric mean (CV), Day 3 CrCL 8–15 mL/min (750‐187.5 mg q24 h)): 6300 ng/mL
AUC ([2]; intravenous, 500 mg, Day 3 CrCL > 150–180 mL/min (2000‐500 mg q8 h)): 103 µg·h/mL
Cmax ([2]; intravenous, 500 mg, C max,ss geometric mean (CV), Day 3 CrCL > 150–180 mL/min (2000‐500 mg q8 h)): 9900 ng/mL
AUC ([2]; intravenous, Asian population: Korea): 144 µg·h/mL
AUC ([2]; intravenous, Asian population: Taiwan): 115 µg·h/mL
AUC ([2]; intravenous, Asian population: Vietnam): 146 µg·h/mL
AUC ([2]; intravenous, Bacteremia at baseline: No): 141 µg·h/mL
AUC ([2]; intravenous, Bacteremia at baseline: Yes): 161 µg·h/mL
AUC ([2]; intravenous, Baseline APACHE II score > 10): 170 µg·h/mL
AUC ([2]; intravenous, Baseline APACHE II score Missing): 138 µg·h/mL
AUC ([2]; intravenous, Baseline APACHE II score ≤ 10): 131 µg·h/mL
AUC ([2]; intravenous, Baseline WBC count (cells/μL) > 12,000): 136 µg·h/mL
AUC ([2]; intravenous, Baseline WBC count (cells/μL) ≤ 12,000): 145 µg·h/mL
AUC ([2]; intravenous, Patient population: NP): 169 µg·h/mL
AUC ([2]; intravenous, Patient population: Non‐VAP): 183 µg·h/mL
AUC ([2]; intravenous, Patient population: VAP): 146 µg·h/mL
AUC ([2]; intravenous, Patient population: cIAI): 132 µg·h/mL
AUC ([2]; intravenous, Patient population: cUTI): 138 µg·h/mL
AUC ([2]; intravenous, SIRS at baseline: Missing): 129 µg·h/mL
AUC ([2]; intravenous, SIRS at baseline: No): 143 µg·h/mL
AUC ([2]; intravenous, SIRS at baseline: Yes): 142 µg·h/mL
Cmax ([2]; intravenous, C max,ss geometric mean (CV), Asian population: Taiwan): 10200 ng/mL
Cmax ([2]; intravenous, C max,ss geometric mean (CV), Asian population: Vietnam): 14600 ng/mL
Cmax ([2]; intravenous, C max,ss geometric mean (CV), Bacteremia at baseline: No): 12600 ng/mL
Cmax ([2]; intravenous, C max,ss geometric mean (CV), Bacteremia at baseline: Yes): 14200 ng/mL
Cmax ([2]; intravenous, C max,ss geometric mean (CV), Baseline APACHE II score > 10): 14300 ng/mL
Cmax ([2]; intravenous, C max,ss geometric mean (CV), Baseline APACHE II score Missing): 12100 ng/mL
Cmax ([2]; intravenous, C max,ss geometric mean (CV), Baseline WBC count (cells/μL) > 12,000): 12500 ng/mL
Cmax ([2]; intravenous, C max,ss geometric mean (CV), Baseline WBC count (cells/μL) ≤ 12,000): 12800 ng/mL
Cmax ([2]; intravenous, C max,ss geometric mean (CV), Patient population: NP): 14200 ng/mL
Cmax ([2]; intravenous, C max,ss geometric mean (CV), Patient population: Non‐VAP): 15500 ng/mL
Cmax ([2]; intravenous, C max,ss geometric mean (CV), Patient population: VAP): 12000 ng/mL
Cmax ([2]; intravenous, C max,ss geometric mean (CV), Patient population: cIAI): 12800 ng/mL
Cmax ([2]; intravenous, C max,ss geometric mean (CV), Patient population: cUTI): 12100 ng/mL
Cmax ([2]; intravenous, C max,ss geometric mean (CV), SIRS at baseline: Missing): 12100 ng/mL
Cmax ([2]; intravenous, C max,ss geometric mean (CV), SIRS at baseline: No): 12800 ng/mL
Cmax ([2]; intravenous, C max,ss geometric mean (CV), SIRS at baseline: Yes): 12600 ng/mL
difference in steady‐state exposure vs. healthy volunteers ([2]; most patient subgroups): ≤ 20%
lower C max,ss ([2]; patients with VAP vs non‐VAP patients): ~ 20%
%fT > 1 mg/L associated with 2log10 reductions in bacterial density [3]: 20–55%
%fT > 1 mg/L associated with stasis [3]: 16–24%
transporter substrate (OAT3): substrate
transporter substrate [4]: substrate
C T that restored the activity of ceftazidime ([5]; avibactam concentration fixed, varying concentrations of ceftazidime): ≤ 0.5 mg/L
C T sufficient to restore ceftazidime activity ([5]; fixed concentrations of ceftazidime, varying concentrations of avibactam): 0.15 to 0.28 mg/L
free plasma concentrations as % of total plasma concentrations [6]: 92%
